Data set [1] concerns LEF/TCF transcription factor reporter (TOPFlash). The data set can be described thus: TOPFlash reporter assay in HEK293 cells. The class given is cell-based. The settings on record: Homo sapiens. As for the experimental part:
To obtain a Frizzled1-GFP stable cell line (Fzd1GFP-U2OS), U2OS cells were transfected with pCS2ratFrizzled1-GFP and pLKO.1 (10:1 ratio by weight), using the Nucleofection transfection protocol from Amaxa, and stable receptor expressing clones were selected using 1.5 μg/mL puromycin in the culture medium. For generating TOPFlash stable cell lines, HEK293 cells were transfected with p8xTOPFlash, the Renilla luciferase plasmid, and pLKO.1 at a ratio by weight of 10:3:1 and stable clones selected using 1 μg/mL puromycin in the growth medium. pLKO.1 was used to confer puromycin resistance to the stable clones.
For the TOPFlash Luciferase assay the TOPFlash stable cells were seeded in 150 μL growing medium/well in 96-well plates at 100% confluency. Fifty microliters of conditioned medium containing the chemical compounds to be tested or DMSO were added to each well. After an 8 hr treatment, the cells were then washed once with PBS, and lysed with 80 μL MPER solution (Pierce, Rockford, Ill.). Thirty microliters of cell lysate were used for measuring luciferase activity in a 96-well plate reader (FluoStar Optima, BMG Labtech, Chicago, Ill.).
LEF/TCF transcription factor reporter (TOPFlash) assay is a general readout for canonical Wnt signaling pathways. […] A Renila luciferase plasmid was also generated to serve as an internal control.
The average TOPFlash reporter activity of Wnt3A plus DMSO treatment was set as 100%, and the relative reporter activity of Wnt3A plus the indicated concentration of niclosmide was calculated and plotted.
The compounds shown in Table 2 were purchased from Sigma-Aldrich (St. Louis, Mo.) or Chembridge (San Diego, Calif.). The activity of each of the compounds as a negative modulator of the Wnt/Frizzled signaling pathway was examined using the Top-flash assay, as described above.

The next data set relates to HCT116 cells. The data set can be described thus: MTT assay, HCT116. It is filed as cell-based. The method, then: AsPC-1 tumor cells were cultured with T cells at a 1:5 ratio for 7 days in the presence of MEDI-565 or Cont BiTE (100 ng/mL). On day 7, floating cells were discarded and only adherent AsPC-1 cells were harvested with 0.05% trypsin/EDTA and washed with PBS three times. 1×10^4 AsPC-1 tumor cells were added to each well of 96 well flat bottom plates in 200 μL of complete RPMI1640 medium. The cells were allowed to adhere to the plates overnight at 37° C. (day 0) and were further incubated for 1, 2, 4 or 7 days. 20 μL of 10×MTT (3-[4,5-dimethylthiazol-2-yl]-2,5-diphenyl-tetrazolium bromide, 5 mg/mL) solution was added to each well, and incubated at 37° C. for 2 hr. The adherent cells were lysed with 150 μL of dimethyl sulfoxide (DMSO) and the optical density (OD) at 550 nm was measured.
Colorectal cancer cell lines were incubated in 96-well flat-bottomed plates at 5,000 cells per well in 200 μL of complete RPMI1640 medium. The cells were allowed to adhere to the plates overnight at 37° C. (day 0). […] Then 20 μL of 10×MTT solution was added to each well and incubated at 37° C. for 2 hr. The adherent cells were lysed with 150 μL of DMSO, and then optical density (OD) at 562 nm was measured. DMSO or culture medium was used as a control.
MTT assay was performed at each time point.
Background: Formazan colour is commonly taken as a measure of viable cells.

Data set [2] in a line: Side effects during in vivo treatment. The arrangement: species or system NOD/SCID mice. The following applies: up to 200 mg/kg gavage, 2-3 weeks. As for the experimental part:
HCT116 colon cancer cells were harvested from flasks with 0.05% Trypsin/EDTA and resuspended with Hanks buffered solution at 5×10^6 cells/100 μL concentration. CRC explants (CRC039) cultured in vitro were harvested with the same procedure and mixed with equal volume of Matrigel to make 1×10^6 cells/100 μL concentration. The cell suspension (100 μL) was inoculated into the flank of NOD/SCID mice 4 days before the start of treatment. […] Initially, 2 weeks of treatment was planned for both HCT116 and CRC039. However, treatment was extended to 3 weeks for CRC039 cells because the […] grew much slower than the HCT116 cell line. Tumor size was measured 3 times a week until mice were euthanized.

A further data set relates to Dvl-2. Briefly: Western blot of cytosolic Dvl-2 in colorectal cancer cells. The class given is cell-based. As for the experimental part: CRC explants and colorectal cancer cell lines were cultured in 6-well plates. […] After washing cells with PBS three times, hypotonic lysis buffer consist of 10 mM Tris-HCl, pH7.4 and 0.2 mM MgCl2, supplemented with 1× Halt Protease and Phosphatase Inhibitor Cocktail (Thermo Scientific Pierce Protein Research Products, Rockford, Ill.) were applied to make cell lyates for Western Blot.
After washing cells with PBS, cell lysates were made with hypotonic lysis buffer.

Another data set deals with Dishevelled-2. Briefly: Immunoblot of endogenous cytosolic Dishevelled-2 in U2OS cells. It is filed as cell-based. The settings on record: 1-7.5 μM, read-out: half maximal reduction of Dishevelled-2. The text has this:
After treatment, cytosolic fraction as well as cellular membrane were isolated as described (Mikels, A. J., et al. PLoS Biol 2006, 4, e115, incorporated herein by reference in its entirety). Immunoblots using β-catenin or Dishevelled-2 antibody were used to detect the respective protein levels in cytosol or on membrane, with β-actin immunoblots used for loading controls.
Dishevelled proteins (Dishevelled-1, 2, and 3 in mammalian cells) are intracellular molecules transducing Frizzled signaling.

The structures appear in SMILES notation. Read-outs that look alike come from different tables or passages of the source.

`O=C(Nc1ccc([N+](=O)[O-])cc1Cl)c1cc(Cl)ccc1O` [niclosamide]: the IC50 in data set [1] (Wnt3A conditioned medium, read-out: IC50 of inhibition of Wnt3A stimulated TOPFlash reporter activity) is 0.5 ± 0.05 µM; in data set [1] (read-out: TopFlash assay: IC50), less than 1 µM; in the data set with Dishevelled-2 it was roughly 1 µM. Besides, the “cytotoxic effect compared with 10 μM oxaliplatin” value in the data set with HCT116 cells (2 μM, 72 hr) is given as “stronger cytotoxic effect”. For the same compound, in the data set on HCT116 cells (0.4, 2, 10 μM, 72 hr), the “proliferation (MTT, OD 562 nm), sensitivity among three cell lines” value is given as “most sensitive”. Also, the “% proliferation over time” value in the data set on HCT116 cells (0.4, 2, 10 μM, 24-96 hr) is reported as “sensitive”. Besides, the “concentration at which cells were killed over time” value with HCT116 cells (24-96 hr) was found to be 0.4 µM. Further, the “side effects during treatment” value in data set [2] is recorded as “no obvious side effect”. For the same compound, the “cytosolic Dvl-2 expression” value with Dvl-2 (CRC057 and HCT116, 1, 5, 10 μM, 18 hr) is on record as “downregulated”; with Dvl-2 (HT29 cells), “milder change”.

The values above are taken from US20130005802A1, “TREATMENT OF WNT/FRIZZLED-RELATED DISEASES” (priority 2009, published 2013).
